Earlier results, collected in patent US20080171724A1, “Phosphonate Derivatives of Mycophenolic Acid” (GILEAD SCIENCES, INC., priority 2004, published 2008).

Settings: after oral or intravenous administration; converted to active metabolite mycophenolic acid

fraction of the drug cleared by glucuronidation and excreted in the urine: over 90%
SMILES: COc1c(C)c2c(c(O)c1C/C=C(\C)CCC(=O)OCCN1CCOCC1)C(=O)OC2 [Mycophenolate mofetil]
